# Reference: patent US3959272A, “Aminoalkyl esters of 2-anilino-nicotinic acids” (Societe Anonyme dite: Hexachime, priority 1972, dated 1976)
# Experiments:
# [1] = Chronic toxicity in beagle dogs, 3 months; format: in vivo, beagle dog; conditions: 150 mg/kg each day for 3 months
# Method: Six beagle dogs (3 male and 3 female) received each day for 3 months 150 mg/kg of the product of Example 1.
# [2] = Analgesic activity: Siegmund's test (phenylbenzoquinone painful reactions); format: in vivo; conditions: Mus musculus, po, read-out: percentage inhibition of reactions
# Method: This activity was measured by Siegmund's test in mice and Randall and Selitto's test in the rat.
# Groups of six mice received the compound under test orally 1 hour before intraperitoneal injection of 0.2 ml of an 0.02% of solution of phenylbenzoquinone. The number of painful reactiors from the fifth to the tenth minute after the injection of phenylbenzoquinone was counted.
# [3] = Cardiovascular parameters: intact dogs; format: in vivo, dog; conditions: for Average pressure / Diastolic pressure / Systolic pressure: in % (unit assumed)
# Method: Unsorted dogs of either sex weighing 8 to 17 kg and anaesthetised by chloralose in solution in polyethylene glycol 300 (0.12 g/kg) were respirated artificially using a Bird pump (Mark 7). The carotid arterial blood pressure was measured with the aid of a Statham P 23 dB device. The left ventricular pressure is measured with the same device connected by a supple catheter introduced by the femoral artery and pushed into the left ventricle. The cardiac rhythm is measured from the signals of the carotid pressure. The myocardial contractile force is measured using a strain gauge (Apelab) attached to the right ventricle. All the parameters are recorded on a Beckman polygraph. Two series of dogs are used to test the cardiovascular activity: 5 dogs atropinised (1 mg/kg intravenously) and bivagotomised; and a second series of 4 intact dogs. The product of Example 1 was injected through the saphena vein and the duration of the injection was 2 minutes.
# The following Table IX gives the variations of the parameters recorded and their significance according to the t test (* p<0.05; ** p<0.01; *** p<0.001).
# [4] = Action on isoprenaline in dogs; format: in vivo, dog; conditions: only if atropinised and bivagotomised
# [5] = format: in vivo, dog; conditions: 48 mg/kg intravenously at 1 mg/kg/minute; two dogs
# Method: The compounds under test were administered to rats or mice intraperitoneally. The loss of the righting reflex was noted and the duration of sleep measured objectively with reference to the loss of the righting reflex. The compounds under test were also administered by slow perfusion to dogs. The moment when the dog fell asleep and the duration of sleep was noted.
# Two dogs each weighing 11 kg. received intravenously 48 mg/kg of the product of Example 1 perfused at the rate of 1 mg/kg/minute. Sleep appeared at the end of 25 minutes and lasted for 15 minutes. The animals were sleepy for 1 hour after the end of the perfusion.
# [6] = Antagonism of convulsions produced by cardiazole; format: in vivo; conditions: Mus musculus, ip, read-out: Percentage inhibition of tonic convulsions
# Method: Groups of 6 mice received the compound under test 30 minutes before introperitoneal injection of 160 mg/kg of cardiazole. The action of the compound under test on the tonic convulsion phase was observed.
# [7] = Stimulation of dental pulp in the rabbit; format: in vivo
# Method: 24 Hours before the test, each incisor of the rabbit is drilled 1 mm below the gum to a depth of about 1 mm. The next day, the animals are placed in restraining boxes and stimulating electrodes are placed in position. The threshold of reaction to the electrical stimulation (at 30 Hz; 10 ms; for 1 s) is measured by the munching reaction of the rabbits. The product of Example 1 was administered intravenously and its effect on the pain threshold was measured at regular intervals after treatment.
# [8] = dog, in vivo
# Method: The product of Example 1 was perfused in the dog at a dosage of 50 mg/minute by the saphena vein. Cardiac arrest was produced by a dose of 344 mg/kg.
# Solubility in water = format: physicochemical
# [9] = 16 mg/kg intravenously, 4 dogs, ** p<0.01
smiles,measurement,setting,value
"Cc1cccc(Nc2ncccc2C(=O)OCCN2CCOCC2)c1C [Example 1, β-Morpholino ethyl nixylate]",biochemical and hematological characteristics,[1],No modification attributable to the treatment was observed
same,histological examination of the organs,[1],normal
same,mortality,[1],No mortality was observed
same,weights of the dogs,[1],remained normal
same,inhibition in vivo at 4 mg/kg,[2]; 4 mg/kg orally,10%
same,inhibition in vivo at 8 mg/kg,[2]; 8 mg/kg orally,26%
same,inhibition in vivo at 16 mg/kg,[2]; 16 mg/kg orally,26%
same,inhibition in vivo at 32 mg/kg,[2]; 32 mg/kg orally,45%
same,inhibition in vivo at 64 mg/kg,[2]; 64 mg/kg orally,64%
same,inhibition in vivo at 128 mg/kg,[2]; 128 mg/kg orally,83%
same,inhibition in vivo at 256 mg/kg,[2]; 256 mg/kg orally,95%
same,Alteration in cardiac rhythm,"[3]; 1 mg/kg intravenously, 4 dogs",-1 beats per minute
same,Duration of the hypotension,"[3]; 1 mg/kg intravenously, 4 dogs",30
same,Average pressure,"[3]; 1 mg/kg intravenously, 4 dogs",-9±5.2
same,Diastolic pressure,"[3]; 1 mg/kg intravenously, 4 dogs",-10±5.7
same,Systolic pressure,"[3]; 1 mg/kg intravenously, 4 dogs",-8±4.6
same,Alteration in cardiac rhythm,"[3]; 4 mg/kg intravenously, 4 dogs",-15 beats per minute
same,Duration of the hypotension,"[3]; 4 mg/kg intravenously, 4 dogs",60
same,Diastolic pressure,"[3]; 4 mg/kg intravenously, 4 dogs, * p<0.05",-18±5.5
same,Average pressure,"[3]; 4 mg/kg intravenously, 4 dogs",-16±5.4
same,Systolic pressure,"[3]; 4 mg/kg intravenously, 4 dogs",-15±5.3
same,Alteration in cardiac rhythm,"[3]; 8 mg/kg intravenously, 2 dogs",-22 beats per minute
same,Average pressure,"[3]; 8 mg/kg intravenously, 2 dogs",-38
same,Diastolic pressure,"[3]; 8 mg/kg intravenously, 2 dogs",-41
same,Systolic pressure,"[3]; 8 mg/kg intravenously, 2 dogs",-34
same,Alteration in cardiac rhythm,"[3]; 16 mg/kg intravenously, 4 dogs",-37 beats per minute
same,Duration of the hypotension,"[3]; 16 mg/kg intravenously, 4 dogs",> 50
same,Average pressure,[3]; [9],-54±4.3
same,Systolic pressure,[3]; [9],-45±7
same,Diastolic pressure,"[3]; 16 mg/kg intravenously, 4 dogs, *** p<0.001",-57±3.8
same,biphasic action on the recorded parameters,[3]; different dosages,No biphasic action on the recorded parameters was observed
same,potentiation of the action of isoprenaline,[4],potentiates the action of isoprenaline in 3 dogs out of 5
same,duration of sleep,[5],15 min
same,time animals were sleepy after the end of the perfusion,[5],1 h
same,time at which sleep appeared,[5],25 min
same,inhibition in vivo at 8 mg/kg,[6]; 8 mg/kg intraperitoneally,0%
same,inhibition in vivo at 16 mg/kg,[6]; 16 mg/kg intraperitoneally,12%
same,inhibition in vivo at 32 mg/kg,[6]; 32 mg/kg intraperitoneally,21%
same,inhibition in vivo at 64 mg/kg,[6]; 64 mg/kg intraperitoneally,62%
same,inhibition in vivo at 128 mg/kg,[6]; 128 mg/kg intraperitoneally,95%
same,"Threshold, % (increase)","[7]; 2.5 mg/kg intravenously, 1h30",59%
same,Threshold in volts,"[7]; 2.5 mg/kg intravenously, 1h30, pre-treatment 2.26",3.61 volts
same,"Threshold, % (increase)","[7]; 2.5 mg/kg intravenously, 2h30",47%
same,Threshold in volts,"[7]; 2.5 mg/kg intravenously, 2h30, pre-treatment 2.26",3.33 volts
same,"Threshold, % (increase)","[7]; 2.5 mg/kg intravenously, 15 min",38%
same,Threshold in volts,"[7]; 2.5 mg/kg intravenously, 15 min, pre-treatment 2.26",3.12 volts
same,"Threshold, % (increase)","[7]; 2.5 mg/kg intravenously, 30 min",33%
same,Threshold in volts,"[7]; 2.5 mg/kg intravenously, 30 min, pre-treatment 2.26",3.02 volts
same,"Threshold, % (increase)","[7]; 2.5 mg/kg intravenously, 1 h",41%
same,Threshold in volts,"[7]; 2.5 mg/kg intravenously, 1 h, pre-treatment 2.26",3.20 volts
same,"Threshold, % (increase)","[7]; 2.5 mg/kg intravenously, 2 h",56%
same,Threshold in volts,"[7]; 2.5 mg/kg intravenously, 2 h, pre-treatment 2.26",3.54 volts
same,"Threshold, % (increase)","[7]; 5 mg/kg intravenously, 1h30",59%
same,Threshold in volts,"[7]; 5 mg/kg intravenously, 1h30, pre-treatment 2.54",4.05 volts
same,"Threshold, % (increase)","[7]; 5 mg/kg intravenously, 2h30",15%
same,Threshold in volts,"[7]; 5 mg/kg intravenously, 2h30, pre-treatment 2.54",2.94 volts
same,"Threshold, % (increase)","[7]; 5 mg/kg intravenously, 15 min",95%
same,Threshold in volts,"[7]; 5 mg/kg intravenously, 15 min, pre-treatment 2.54",4.97 volts
same,"Threshold, % (increase)","[7]; 5 mg/kg intravenously, 30 min",88%
same,Threshold in volts,"[7]; 5 mg/kg intravenously, 30 min, pre-treatment 2.54",4.80 volts
same,"Threshold, % (increase)","[7]; 5 mg/kg intravenously, 1 h",58%
same,Threshold in volts,"[7]; 5 mg/kg intravenously, 1 h, pre-treatment 2.54",4.02 volts
same,"Threshold, % (increase)","[7]; 5 mg/kg intravenously, 2 h",30%
same,Threshold in volts,"[7]; 5 mg/kg intravenously, 2 h, pre-treatment 2.54",3.31 volts
same,"Threshold, % (increase)","[7]; 10 mg/kg intravenously, 1h30",52%
same,Threshold in volts,"[7]; 10 mg/kg intravenously, 1h30, pre-treatment 2.65",4.05 volts
same,"Threshold, % (increase)","[7]; 10 mg/kg intravenously, 2h30",24%
same,Threshold in volts,"[7]; 10 mg/kg intravenously, 2h30, pre-treatment 2.65",3.29 volts
same,"Threshold, % (increase)","[7]; 10 mg/kg intravenously, 15 min",74%
same,Threshold in volts,"[7]; 10 mg/kg intravenously, 15 min, pre-treatment 2.65",4.62 volts
same,"Threshold, % (increase)","[7]; 10 mg/kg intravenously, 30 min",118%
same,Threshold in volts,"[7]; 10 mg/kg intravenously, 30 min, pre-treatment 2.65",5.80 volts
same,"Threshold, % (increase)","[7]; 10 mg/kg intravenously, 1 h",69%
same,Threshold in volts,"[7]; 10 mg/kg intravenously, 1 h, pre-treatment 2.65",4.49 volts
same,"Threshold, % (increase)","[7]; 10 mg/kg intravenously, 2 h",40%
same,Threshold in volts,"[7]; 10 mg/kg intravenously, 2 h, pre-treatment 2.65",3.72 volts
same,dose producing cardiac arrest,[8],344 mg/kg
same,solubility in water,Solubility in water; dihydrochloride,very soluble
same,solubility in water,Solubility in water; monohydrochloride,sparingly soluable in water
